ChEMBL document CHEMBL5727596, “Tetrahydroisoquinoline derivatives useful as inhibitors of diacylglyceride O-acyltransferase 2” (2020)

These molecules were tested against T1, Diacylglycerol O-acyltransferase 2 (Homo sapiens, UniProt Q96PD7) (assay: Enzymatic Activity Assay: DGAT2 activity was determined by measuring the amount of enzymatic product triolein (1,2,3-Tri(cis-9-octadecenoyl)glycerol) using the membrane prep mentioned above. The assay was carried out in deep well 384 plates in a final volume of 40 μL at room temperature. The assay mixture contained the following: assay buffer (100 mM Tris.Cl, pH 7.0, 20 mM MgCl2, 5% ethanol), 25 μM of diolein, 10 μM of oleoyl-CoA and 10 ng/μL of DGAT2 membrane.).
T1 sequence (Q96PD7 whole entry): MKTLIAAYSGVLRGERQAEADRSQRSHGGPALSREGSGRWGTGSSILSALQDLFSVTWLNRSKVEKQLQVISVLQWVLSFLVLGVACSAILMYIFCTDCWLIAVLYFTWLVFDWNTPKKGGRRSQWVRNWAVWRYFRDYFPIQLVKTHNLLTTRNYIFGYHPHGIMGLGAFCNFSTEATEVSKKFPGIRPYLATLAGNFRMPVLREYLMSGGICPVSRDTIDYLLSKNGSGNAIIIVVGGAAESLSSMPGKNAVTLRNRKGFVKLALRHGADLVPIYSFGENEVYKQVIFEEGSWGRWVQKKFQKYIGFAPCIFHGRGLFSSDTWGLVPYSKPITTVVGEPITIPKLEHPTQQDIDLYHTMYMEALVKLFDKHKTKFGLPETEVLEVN

IC50 | Compound
2800 nM | COC(=O)c1cccc(-c2ccc(CNC(=O)C3CC3c3ccccc3)c3c2CCN(Cc2cc(C)n(C4CC4)c2C)C3)c1 (mixture of isomers)
23.8 nM | COc1cccc(-c2ccc(CNC(=O)[C@@H]3C[C@H]3c3ccccc3)c3c2CCN(C(=O)NC(C)C(C)C)C3)c1 (mixture of isomers)
22.6 nM | COc1cccc(-c2ccc(CNC(=O)[C@@H]3C[C@H]3c3ccccc3)c3c2CCN(C(=O)NC2CC2)C3)c1 (mixture of isomers)
249 nM | COC(=O)c1cccc(-c2ccc(CNC(=O)C3CC3c3ccccc3)c3c2CCN(C(=O)c2ccccn2)C3)c1 (mixture of isomers)
512 nM | Cc1noc([C@@H]2C[C@H]2C(=O)NCc2ccc(-c3cncc(C(C)(C)O)c3)c3c2CN(C(=O)NC(C)(C)C)CC3)n1 (relative stereo)
723 nM | COc1cccc(-c2ccc(CNC(=O)[C@H]3C[C@@H]3c3nc(C)no3)c3c2CCN(C(=O)C(C)(C)O)C3)c1 (relative stereo)
8.3 nM | CCCNC(=O)N1CCc2c(-c3cccc(OC)c3)ccc(CNC(=O)[C@@H]3C[C@H]3c3nc(C)no3)c2C1 (relative stereo)
2410 nM | COC(=O)c1cccc(-c2ccc(CNC(=O)C3CC3c3ccccc3)c3c2CCN(Cc2ccncc2)C3)c1 (mixture of isomers)
249 nM | CCCCC(CC)CNC(=O)N1CCc2c(-c3cccc(OC)c3)ccc(CNC(=O)[C@@H]3C[C@H]3c3ccccc3)c2C1 (relative stereo)
5.8 nM | Cc1noc([C@H]2C[C@@H]2C(=O)NCc2ccc(-c3cccc(C(F)(F)F)c3)c3c2CN(C(=O)NC(C)(C)C)CC3)n1 (relative stereo)
